Data as given in patent US12653191B2, “Active compound combinations” (Bayer Aktiengesellschaft, priority 2020, dated 2026).
Several values for one entry are separate records, joined by “and”; a condition that tells them apart may be missing. Equal entries are not always repeated.

Key:
Format in all cases: cell-based
Alternaria alternata = test: in vitro-Test with fungal microorganisms, Method B (tables A13-A22)
Summary of the method: (§1)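 Efficacy scale: 0% means growth equal to the untreated control, 100% means none detected. Compounds are dried from methanol with emulsifier before adding inoculated growth medium; incubation at 20° C., 85% relative humidity for 3 to 7 days precedes photometric inhibition readout.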

Botrytis cinerea [1] = test: in vitro-Test with fungal microorganisms, Method A (tables B1-B14); conditions: for Efficacy %: alone
Summary of the method: (§2)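 Test compound in methanol plus alkylaryl-polyglycol-ether emulsifier was dried into wells, then liquid potato dextrose medium containing spores or mycelium of the fungus was added. Plates were incubated at 20° C and 85% relative humidity; growth read at 620 nm after 3-5 days, efficacy relative to untreated control.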

Botrytis cinerea [2] = test: in vitro-Test with fungal microorganisms, Method B (tables B15-B18); conditions: 0.8 ppm, alone
Summary of the method: as §1

Cercospora beticola [3] = test: in vitro-Test with fungal microorganisms, Method A (tables C1-C10)
Summary of the method: as §2

Cercospora beticola [4] = test: in vitro-Test with fungal microorganisms, Method B (tables C11-C20); conditions: single compound, 0.8 ppm
Summary of the method: as §1

[5] = tested on: Colletotrichum lindemuthianum; test: in vitro-Test with fungal microorganisms, Method A (tables D1-D8)
Summary of the method: as §2

Cordana musae [6] = test: in vitro-Test with fungal microorganisms, Method A (tables E1-E8); conditions: single substance
Summary of the method: as §2

Cordana musae [7] = test: in vitro-Test with fungal microorganisms, Method B (tables E9-E16); conditions: single active
Summary of the method: as §1

Diaporthe citri [8] = test: in vitro-Test with fungal microorganisms, Method A (tables F1-F11)
Summary of the method: as §2

Diaporthe citri [9] = test: in vitro-Test with fungal microorganisms, Method B (tables F12-F15); conditions: Table F14
Summary of the method: as §1

Fusarium culmorum = test: in vitro-Test with fungal microorganisms, Method B (tables G5-G15); conditions: single active compound
Summary of the method: as §1

Parastagonospora nodorum = test: in vitro-Test with fungal microorganisms, Method A (tables H1-H4)
Description: Example: In Vitro-Test with Fungal Microorganisms
Wells of 96-well microtiter plates are filled with 10 μl of a preparation of test compound or compound combination in methanol+emulsifier alkylaryl-polyglycol-ether. Thereafter, the solvent is evaporated in a hood. At the next step, 100 μl of liquid potato dextrose medium is given into each well, that has been amended with an appropriate concentration of spores or mycelium suspension of the test fungus.
With the aid of a photometer, the extinction in all wells is measured at the wavelength of 620 nm.
The microtiter plates are incubated at 20° C. and 85% relative humidity. The inhibition of growth is determined again photometrically 3-5 days after the application. Efficacy is calculated in relation to the untreated control, 0% efficacy means fungal growth as high as in untreated control while 100% efficacy means no fungal growth is measured.
The data in tables A1 to A12, B1 to B14, C1 to C10, D1 to D8, E1 to E8, F1 to F11, G1 to G4, H1 to H4 and I1 to I5 were collected according to Method A. The data in tables A13 to A22, B15 to B18, C11 to C20, E9 to E16, F12 to F15, G5 to G15, H5 to H8, I6 to I11 and J1 to J11 were collected according to Method B.

[10] = tested on: Ustilago segetum var. avenae; test: in vitro-Test with fungal microorganisms, Method A (tables I1-I5); conditions: alone
Summary of the method: as §2

Colletotrichum coccodes = test: in vitro-Test with fungal microorganisms, Method B (tables J1-J11)
Summary of the method: as §1

For mancozeb [(5.013) mancozeb], the Efficacy (Alternaria alternata; 0.8 ppm) was 4%, the Efficacy (Alternaria alternata; 4 ppm) was 36% and the Efficacy (Alternaria alternata; 20 ppm) was 63%. The Efficacy (Botrytis cinerea [1]; 0.4 ppm) was 0%, the Efficacy (Botrytis cinerea [1]; 2.0 ppm) was 0% and the Efficacy (Botrytis cinerea [1]; 10.0 ppm) was 33%. The Efficacy % (Botrytis cinerea [1]; 0.8 ppm) was 15%, the Efficacy % (Botrytis cinerea [1]; 4.0 ppm) was 0% and the Efficacy % (Botrytis cinerea [1]; 20.0 ppm) was 15%. The Efficacy % (Botrytis cinerea [1]; 100.0 ppm) was 83%, the Efficacy % (Botrytis cinerea [2]) was 0% and 4% and the Efficacy % (Cercospora beticola [3]; 0.08 ppm) was 4% and 0%. It also gave an Efficacy % (Cercospora beticola [3]; 0.08 ppm alone) of 0%, an Efficacy % (Cercospora beticola [3]; 0.4 ppm alone) of 0% and an Efficacy % (Cercospora beticola [3]; 2.0 ppm) of 100%. It also gave an Efficacy % (Cercospora beticola [3]; 2.0 ppm alone) of 100%, an Efficacy % (Cercospora beticola [3]; 10.0 ppm) of 100% and an Efficacy % (Cercospora beticola [3]; 10.0 ppm, alone) of 100%. It also gave an Efficacy % (Cercospora beticola [4]) of 0%, an Efficacy % ([5]; single active at 0.08 ppm) of 4% and an Efficacy % ([5]; single active at 0.4 ppm) of 0%. The Efficacy % ([5]; single active at 10.0 ppm) was 100%, the Efficacy % (Cordana musae [6]; 0.08 ppm) was 0% and the Efficacy % (Cordana musae [6]; 0.4 ppm) was 0% and 3%. For the same substance, the Efficacy % (Cordana musae [6]; 2.0 ppm) was 31% and 32%, the Efficacy % (Cordana musae [6]; 10.0 ppm) was 100% and the Efficacy (Cordana musae [7]; 0.8 ppm) was 0%. The Efficacy (Cordana musae [7]; 4 ppm) was 14% and 19%, the Efficacy (Cordana musae [7]; 20 ppm) was 100% and the Efficacy (Diaporthe citri [8]; Table F10, 0.08 ppm alone) was 0%. It also gave an Efficacy (Diaporthe citri [8]; Table F10, 0.4 ppm alone) of 46%, an Efficacy (Diaporthe citri [8]; Table F10, 2.0 ppm alone) of 100% and an Efficacy (Diaporthe citri [8]; Table F10, 10.0 ppm alone) of 100%. It also gave an Efficacy (Diaporthe citri [8]; applied alone, 0.08 ppm) of 6%, an Efficacy (Diaporthe citri [8]; applied alone, 0.4 ppm) of 21% and an Efficacy (Diaporthe citri [8]; applied alone, 2.0 ppm) of 100%. It also gave an Efficacy (Diaporthe citri [8]; applied alone, 10.0 ppm) of 100%, an Efficacy (Diaporthe citri [8]; single active, 0.08 ppm) of 2% and an Efficacy (Diaporthe citri [8]; single active, 0.4 ppm) of 0%. The Efficacy (Diaporthe citri [8]; single active, 2.0 ppm) was 46%, the Efficacy (Diaporthe citri [8]; single active, 10.0 ppm) was 100% and the Efficacy (Diaporthe citri [9]; 0.8 ppm alone) was 0%. The Efficacy (Diaporthe citri [9]; 4 ppm alone) was 78%, the Efficacy (Diaporthe citri [9]; 20 ppm alone) was 99% and the Efficacy (Fusarium culmorum; 0.8 ppm) was 0%. The Efficacy (Fusarium culmorum; 4 ppm) was 16%, the Efficacy (Fusarium culmorum; 20 ppm) was 50% and 31% and the Efficacy (Parastagonospora nodorum; 0.08 ppm) was 0%. It also gave an Efficacy (Parastagonospora nodorum; 0.4 ppm) of 5%, an Efficacy (Parastagonospora nodorum; 2.0 ppm) of 37% and an Efficacy (Parastagonospora nodorum; 10.0 ppm) of 100%. The Efficacy % ([10]; 0.08 ppm) was 3%, the Efficacy % ([10]; 0.4 ppm) was 0% and the Efficacy % ([10]; 2.0 ppm) was 10%. The Efficacy % ([10]; 10.0 ppm) was 98%, the Efficacy % (Colletotrichum coccodes; single active compound at 0.8 ppm) was 0% and the Efficacy % (Colletotrichum coccodes; single active compound at 4 ppm) was 0%. For the same substance, the Efficacy % (Colletotrichum coccodes; single active compound at 20 ppm) was 100%.
